Test results from the CheMixHub ionic liquid set.
± gives the uncertainty stated by the source.

Experiment: xn = mol fraction of the nth substance listed

CO + CC[n+]1ccn(C)c1.F[B-](F)(F)F
viscosity (303.15 K, 101 kPa, x2 = 0): 0.504 ± 0.051 mPa·s | viscosity (313.15 K, 101 kPa, x2 = 0): 0.442 ± 0.044 mPa·s | viscosity (323.15 K, 101 kPa, x2 = 0): 0.39 ± 0.039 mPa·s | viscosity (333.15 K, 101 kPa, x2 = 0): 0.344 ± 0.034 mPa·s

CC[S+](CC)CCOCCOCCOCCOCC[S+](CC)CC.O=S(=O)([N-]S(=O)(=O)C(F)(F)F)C(F)(F)F.O=S(=O)([N-]S(=O)(=O)C(F)(F)F)C(F)(F)F + CC[n+]1ccn(C)c1.N#C[N-]C#N + O=S(=O)([N-]S(=O)(=O)C(F)(F)F)C(F)(F)F.[Li+]
electrical conductivity (298 K, 100 kPa, x1 = 0.1416, x2 = 0.7549): 0.679 ± 0.027 S/m | electrical conductivity (303 K, 100 kPa, x1 = 0.1416, x2 = 0.7549): 0.979 ± 0.039 S/m | electrical conductivity (313 K, 100 kPa, x1 = 0.1416, x2 = 0.7549): 1.29 ± 0.052 S/m | electrical conductivity (323 K, 100 kPa, x1 = 0.1416, x2 = 0.7549): 1.7 ± 0.068 S/m | electrical conductivity (333 K, 100 kPa, x1 = 0.1416, x2 = 0.7549): 2.05 ± 0.082 S/m | electrical conductivity (343 K, 100 kPa, x1 = 0.1416, x2 = 0.7549): 2.41 ± 0.096 S/m

C[N+]1(CCOCC[N+]2(C)CCCC2)CCCC1.O=S(=O)([N-]S(=O)(=O)C(F)(F)F)C(F)(F)F.O=S(=O)([N-]S(=O)(=O)C(F)(F)F)C(F)(F)F + CC[n+]1ccn(C)c1.N#C[N-]C#N + O=S(=O)([N-]S(=O)(=O)C(F)(F)F)C(F)(F)F.[Li+]
electrical conductivity (298 K, 100 kPa, x1 = 0.1626, x2 = 0.7364): 0.806 ± 0.032 S/m | electrical conductivity (303 K, 100 kPa, x1 = 0.1626, x2 = 0.7364): 1.08 ± 0.043 S/m | electrical conductivity (313 K, 100 kPa, x1 = 0.1626, x2 = 0.7364): 1.43 ± 0.057 S/m | electrical conductivity (323 K, 100 kPa, x1 = 0.1626, x2 = 0.7364): 1.82 ± 0.073 S/m | electrical conductivity (333 K, 100 kPa, x1 = 0.1626, x2 = 0.7364): 2.2 ± 0.088 S/m | electrical conductivity (343 K, 100 kPa, x1 = 0.1626, x2 = 0.7364): 2.65 ± 0.11 S/m

CO + CC[n+]1ccn(C)c1.N#C[S-]
viscosity (298.15 K, 100 kPa, x2 = 0): 0.54 mPa·s | viscosity (318.15 K, 100 kPa, x2 = 0): 0.43 mPa·s

CCCC[n+]1ccn(C)c1.CCOS(=O)(=O)[O-] + CC[n+]1ccn(C)c1.O=S(=O)([N-]S(=O)(=O)C(F)(F)F)C(F)(F)F
viscosity (298.15 K, 100 kPa, x2 = 0): 255.2 ± 7.6 mPa·s | viscosity (298.15 K, 100 kPa, x2 = 0.5013): 87.6 ± 1.5 mPa·s | viscosity (298.15 K, 100 kPa, x2 = 0.7113): 57.11 ± 0.83 mPa·s

CC[n+]1ccn(C)c1.F[B-](F)(F)F + CC[n+]1ccn(C)c1.O=S(=O)([N-]S(=O)(=O)C(F)(F)F)C(F)(F)F
electrical conductivity (243.15 K, 100 kPa, x2 = 0): 0.026 ± 0.003 S/m | electrical conductivity (248.15 K, 100 kPa, x2 = 0): 0.043 ± 0.005 S/m | electrical conductivity (253.15 K, 100 kPa, x2 = 0): 0.066 ± 0.007 S/m | viscosity (253.15 K, 100 kPa, x2 = 0): 308 ± 35 mPa·s | electrical conductivity (258.15 K, 100 kPa, x2 = 0): 0.096 ± 0.01 S/m | electrical conductivity (263.15 K, 100 kPa, x2 = 0): 0.135 ± 0.014 S/m | viscosity (263.15 K, 100 kPa, x2 = 0): 152 ± 16 mPa·s | electrical conductivity (268.15 K, 100 kPa, x2 = 0): 0.184 ± 0.019 S/m | electrical conductivity (273.15 K, 100 kPa, x2 = 0): 0.243 ± 0.025 S/m | viscosity (273.15 K, 100 kPa, x2 = 0): 85.2 ± 8.6 mPa·s | electrical conductivity (278.15 K, 100 kPa, x2 = 0): 0.313 ± 0.032 S/m | electrical conductivity (283.15 K, 100 kPa, x2 = 0): 0.395 ± 0.04 S/m | viscosity (283.15 K, 100 kPa, x2 = 0): 52.4 ± 5.2 mPa·s | electrical conductivity (288.15 K, 100 kPa, x2 = 0): 0.488 ± 0.049 S/m | electrical conductivity (293.15 K, 100 kPa, x2 = 0): 0.594 ± 0.06 S/m | viscosity (293.15 K, 100 kPa, x2 = 0): 34.6 ± 3.5 mPa·s | electrical conductivity (298.15 K, 100 kPa, x2 = 0): 0.712 ± 0.072 S/m | viscosity (303.15 K, 100 kPa, x2 = 0): 24.2 ± 2.4 mPa·s | viscosity (313.15 K, 100 kPa, x2 = 0): 17.8 ± 1.8 mPa·s | viscosity (323.15 K, 100 kPa, x2 = 0): 13.5 ± 1.4 mPa·s | viscosity (333.15 K, 100 kPa, x2 = 0): 10.6 ± 1.1 mPa·s

CO + CC[n+]1ccn(C)c1.O=S(=O)([N-]S(=O)(=O)C(F)(F)F)C(F)(F)F
viscosity (298.15 K, 100 kPa, x1 = 1): 0.55 ± 0.2 mPa·s | viscosity (308.15 K, 100 kPa, x1 = 1): 0.48 ± 0.2 mPa·s | viscosity (318.15 K, 100 kPa, x1 = 1): 0.43 ± 0.2 mPa·s

Cc1cnc[nH]1 + CC[n+]1ccn(C)c1.[Cl-]
viscosity (303.15 K, 101.33 kPa, x2 = 0.667): 326 ± 12 mPa·s | viscosity (313.15 K, 101.33 kPa, x2 = 0.667): 151.3 ± 4.8 mPa·s | viscosity (323.15 K, 101.33 kPa, x2 = 0.667): 84.8 ± 2.2 mPa·s | viscosity (333.15 K, 101.33 kPa, x2 = 0.667): 51.8 ± 1.2 mPa·s | viscosity (343.15 K, 101.33 kPa, x2 = 0.667): 32.73 ± 0.76 mPa·s | viscosity (353.15 K, 101.33 kPa, x2 = 0.667): 22.56 ± 0.52 mPa·s

CO + CC[n+]1ccn(C)c1C.F[B-](F)(F)F
viscosity (308.15 K, 101.3 kPa, x2 = 0): 0.467 ± 0.044 mPa·s

CC[n+]1ccn(C)c1.F[B-](F)(F)F + CN(C)C=O
viscosity (303.15 K, 101 kPa, x2 = 0.2016): 16.52 ± 0.25 mPa·s | viscosity (313.15 K, 101 kPa, x2 = 0): 20.41 ± 0.33 mPa·s | viscosity (313.15 K, 101 kPa, x2 = 0.3987): 7.35 ± 0.1 mPa·s | viscosity (313.15 K, 101 kPa, x2 = 0.5005): 5.397 ± 0.075 mPa·s | viscosity (313.15 K, 101 kPa, x2 = 0.7997): 1.806 ± 0.024 mPa·s | viscosity (323.15 K, 101 kPa, x2 = 0): 15.35 ± 0.25 mPa·s | viscosity (323.15 K, 101 kPa, x2 = 0.2994): 7.73 ± 0.11 mPa·s | viscosity (323.15 K, 101 kPa, x2 = 0.5005): 4.475 ± 0.062 mPa·s | viscosity (323.15 K, 101 kPa, x2 = 0.6004): 3.226 ± 0.044 mPa·s | viscosity (323.15 K, 101 kPa, x2 = 0.8999): 1.01 ± 0.013 mPa·s

CC[n+]1ccn(C)c1.COP(=O)([O-])OC + CO
viscosity (298.15 K, 101 kPa, x2 = 0.598): 20.62 ± 0.24 mPa·s | viscosity (318.15 K, 101 kPa, x2 = 0.799): 3.265 ± 0.039 mPa·s | viscosity (328.15 K, 101 kPa, x2 = 0.399): 20.82 ± 0.23 mPa·s | viscosity (333.15 K, 101 kPa, x2 = 0.399): 18.06 ± 0.18 mPa·s

CC[n+]1ccn(C)c1.F[B-](F)(F)F + CO
viscosity (303.15 K, 101 kPa, x1 = 0.0999): 0.945 ± 0.095 mPa·s | viscosity (303.15 K, 101 kPa, x1 = 0.2): 1.6 ± 0.16 mPa·s | viscosity (303.15 K, 101 kPa, x1 = 0.3): 2.45 ± 0.25 mPa·s | viscosity (303.15 K, 101 kPa, x1 = 0.3996): 3.62 ± 0.36 mPa·s | viscosity (303.15 K, 101 kPa, x1 = 0.5005): 5.25 ± 0.53 mPa·s | viscosity (303.15 K, 101 kPa, x1 = 0.5973): 7.32 ± 0.73 mPa·s | viscosity (303.15 K, 101 kPa, x1 = 0.7011): 10.4 ± 1 mPa·s | viscosity (303.15 K, 101 kPa, x1 = 0.8013): 14.5 ± 1.5 mPa·s | viscosity (303.15 K, 101 kPa, x1 = 0.8995): 20 ± 2 mPa·s | viscosity (303.15 K, 101 kPa, x1 = 1): 28 ± 2.8 mPa·s | viscosity (313.15 K, 101 kPa, x1 = 0.0999): 0.822 ± 0.082 mPa·s | viscosity (313.15 K, 101 kPa, x1 = 0.2): 1.36 ± 0.14 mPa·s | viscosity (313.15 K, 101 kPa, x1 = 0.3): 2.08 ± 0.21 mPa·s | viscosity (313.15 K, 101 kPa, x1 = 0.3996): 3.03 ± 0.3 mPa·s | viscosity (313.15 K, 101 kPa, x1 = 0.5005): 4.34 ± 0.44 mPa·s | viscosity (313.15 K, 101 kPa, x1 = 0.5973): 5.96 ± 0.6 mPa·s | viscosity (313.15 K, 101 kPa, x1 = 0.7011): 8.24 ± 0.83 mPa·s | viscosity (313.15 K, 101 kPa, x1 = 0.8013): 11.2 ± 1.1 mPa·s | viscosity (313.15 K, 101 kPa, x1 = 0.8995): 15.1 ± 1.5 mPa·s | viscosity (313.15 K, 101 kPa, x1 = 1): 20.4 ± 2.1 mPa·s | viscosity (323.15 K, 101 kPa, x1 = 0.0999): 0.718 ± 0.072 mPa·s | viscosity (323.15 K, 101 kPa, x1 = 0.2): 1.19 ± 0.12 mPa·s | viscosity (323.15 K, 101 kPa, x1 = 0.3): 1.79 ± 0.18 mPa·s | viscosity (323.15 K, 101 kPa, x1 = 0.3996): 2.6 ± 0.26 mPa·s | viscosity (323.15 K, 101 kPa, x1 = 0.5005): 3.67 ± 0.37 mPa·s | viscosity (323.15 K, 101 kPa, x1 = 0.5973): 4.96 ± 0.5 mPa·s | viscosity (323.15 K, 101 kPa, x1 = 0.7011): 6.82 ± 0.68 mPa·s | viscosity (323.15 K, 101 kPa, x1 = 0.8013): 8.97 ± 0.9 mPa·s | viscosity (323.15 K, 101 kPa, x1 = 0.8995): 11.7 ± 1.2 mPa·s | viscosity (323.15 K, 101 kPa, x1 = 1): 15.3 ± 1.5 mPa·s | viscosity (333.15 K, 101 kPa, x1 = 0.0999): 0.636 ± 0.064 mPa·s | viscosity (333.15 K, 101 kPa, x1 = 0.2): 1.06 ± 0.11 mPa·s | viscosity (333.15 K, 101 kPa, x1 = 0.3): 1.6 ± 0.16 mPa·s | viscosity (333.15 K, 101 kPa, x1 = 0.3996): 2.3 ± 0.23 mPa·s | viscosity (333.15 K, 101 kPa, x1 = 0.5005): 3.24 ± 0.32 mPa·s | viscosity (333.15 K, 101 kPa, x1 = 0.5973): 4.25 ± 0.43 mPa·s | viscosity (333.15 K, 101 kPa, x1 = 0.7011): 5.74 ± 0.58 mPa·s | viscosity (333.15 K, 101 kPa, x1 = 0.8013): 7.47 ± 0.75 mPa·s | viscosity (333.15 K, 101 kPa, x1 = 0.8995): 9.43 ± 0.95 mPa·s | viscosity (333.15 K, 101 kPa, x1 = 1): 12.1 ± 1.2 mPa·s

CC[n+]1ccn(C)c1.O=S(=O)([N-]S(=O)(=O)C(F)(F)F)C(F)(F)F + CO
viscosity (298.15 K, 100 kPa, x2 = 0.5988): 6.44 ± 0.31 mPa·s | viscosity (308.15 K, 100 kPa, x2 = 0.4005): 9.17 ± 0.32 mPa·s | viscosity (308.15 K, 100 kPa, x2 = 0.8978): 1.32 ± 0.3 mPa·s | viscosity (313.15 K, 100 kPa, x2 = 0.4005): 8.11 ± 0.31 mPa·s | viscosity (313.15 K, 100 kPa, x2 = 0.5088): 6.09 ± 0.31 mPa·s | viscosity (313.15 K, 100 kPa, x2 = 0.6909): 3.44 ± 0.3 mPa·s | viscosity (318.15 K, 100 kPa, x2 = 0.1965): 11.67 ± 0.42 mPa·s | viscosity (323.15 K, 100 kPa, x2 = 0.7961): 1.82 ± 0.3 mPa·s
